Data from patent US20220073536A1 (Rigel Pharmaceuticals, Inc., priority 2003, published 2022).
Where two headings read alike, the source gives them in different places.

System: cultured human mast cells (CHMC)
Experiment: CHMC low cell density IgE activation: tryptase assay
Assay type: cell-based
Details: low cell density CHMC, IgE activation, tryptase
Procedure, shortened: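 Low-density CHMC, 1000-1500 cells/well in MT; 1 hr 37 °C; anti-IgE challenge 30 min 37 °C; supernatant tryptase via fluorogenic substrate, 30 min RT.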

[1] = Homo sapiens, Mast cell, 3 pt, read-out: LD Tryptase, CHMC, IgE, 3 pt
[2] = Homo sapiens, Mast cell, 8 pt, read-out: LD Tryptase, CHMC, IgE, 8 pt

With COc1ccc(Nc2nc(Nc3ccc4cnn(CC5CCCCC5)c4c3)ncc2F)cc1Cl [Compound 722, N4-(3-Chloro-4-methoxyphenyl)-N2-[1-(cyclohexylmethyl)indazol-6-yl]-5-fluoro-2,4-pyrimidinediamine] the IC50 [1] was < 10 µM and the IC50 [2] was < 10 µM.

For Fc1cnc(Nc2ccc3cnn(CC4CCCCC4)c3c2)nc1Nc1ccc(Cl)c(Cl)c1 [Compound 723, N2-[1-(Cyclohexylmethyl)indazol-6-yl]-N4-(3,4-dichlorophenyl)-5-fluoro-2,4-pyrimidinediamine], the IC50 [1] was > 10 µM.

For CC1(C)Oc2ccc(Nc3nc(Nc4ccc5cnn(CC6CCCCC6)c5c4)ncc3F)cc2NC1=O [Compound 724, N2-[1-(Cyclohexylmethyl)indazol-6-yl]-N4-(2,2-dimethyl-3-oxo-4H-benz[1,4]oxazin-6-yl)-5-fluoro-2,4-pyrimidinediamine], the IC50 [2] was < 10 µM.

In the case of COc1cc(Nc2nc(Nc3ccc4cnn(CC5CCCCC5)c4c3)ncc2F)ccc1F [Compound 725, N2-[1-(Cyclohexylmethyl)indazol-6-yl)-5-fluoro-N4-(4-fluoro-3-methoxyphenyl)-2,4-pyrimidinediamine], the IC50 [1] is reported as < 10 µM.

In the case of COc1ccc(Nc2nc(Nc3ccc4c(cnn4CC4CCC4)c3)ncc2F)cc1Cl [Compound 726, N4-(3-Chloro-4-methoxyphenyl)-N2-[1-(cyclobutylmethyl)indazol-5-yl]-5-fluoro-2,4-pyrimidinediamine], the IC50 [1] is reported as < 10 µM.

In the case of Fc1cnc(Nc2ccc3c(cnn3CC3CCC3)c2)nc1Nc1ccc(Cl)c(Cl)c1 [Compound 727, N2-[1-(Cyclobutylmethyl)indazol-5-yl]-N4-(3,4-dichlorophenyl)-5-fluoro-2,4-pyrimidinediamine], the IC50 [1] is reported as < 10 µM.

CC1(C)Oc2ccc(Nc3nc(Nc4ccc5c(cnn5CC5CCC5)c4)ncc3F)cc2NC1=O [Compound 728, N2-[1-(Cyclobutylmethyl)indazol-5-yl]-N4-(2,2-dimethyl-3-oxo-4H-benz[1,4]oxazin-6-yl)-5-fluoro-2,4-pyrimidinediamine] was tested, and the IC50 [2] was < 10 µM.

In the case of COc1cc(Nc2nc(Nc3ccc4c(cnn4CC4CCC4)c3)ncc2F)ccc1F [Compound 729, N2-[1-(Cyclobuylmethyl)indazol-5-yl)-5-fluoro-N4-(4-fluoro-3-methoxyphenyl)-2,4-pyrimidinediamine], the IC50 (8 pt, read-out: LD Tryptase, CHMC, IgE, 8 pt) is reported as < 10 µM.

With COc1ccc(Nc2nc(Nc3ccc4cnn(CC5CCC5)c4c3)ncc2F)cc1Cl [Compound 730, N4-(3-Chloro-4-methoxyphenyl)-N2-[1-(cyclobutylmethyl)indazol-6-yl]-5-fluoro-2,4-pyrimidinediamine] the IC50 [1] was < 10 µM.

With Fc1cnc(Nc2ccc3cnn(CC4CCC4)c3c2)nc1Nc1ccc(Cl)c(Cl)c1 [Compound 731, N2-[1-(Cyclobutylmethyl)indazol-6-yl]-N4-(3,4-dichlorophenyl)-5-fluoro-2,4-pyrimidinediamine] the IC50 [1] was < 10 µM.

For CC1(C)Oc2ccc(Nc3nc(Nc4ccc5cnn(CC6CCC6)c5c4)ncc3F)cc2NC1=O [Compound 732, N2-[1-(Cyclobutylmethyl)indazol-6-yl]-N4-(2,2-dimethyl-3-oxo-4H-benz[1,4]oxazin-6-yl)-5-fluoro-2,4-pyrimidinediamine], the IC50 [2] was < 10 µM.

COc1cc(Nc2nc(Nc3ccc4cnn(CC5CCC5)c4c3)ncc2F)ccc1F [Compound 733, N2-[1-(Cyclobuylmethyl)indazol-6-yl)-5-fluoro-N4-(4-fluoro-3-methoxyphenyl)-2,4-pyrimidinediamine] was tested, and the IC50 (3 pt, read-out: LD Tryptase, CHMC, IgE, 3 pt) was < 10 µM.

COc1ccc(Nc2nc(Nc3ccc4c(cnn4CC4CC4)c3)ncc2F)cc1Cl [Compound 734, N4-(3-Chloro-4-methoxyphenyl)-N2-[1-(cyclopropylmethyl)indazol-5-yl]-5-fluoro-2,4-pyrimidinediamine] was tested, and the IC50 [2] was < 10 µM.

For Fc1cnc(Nc2ccc3c(cnn3CC3CC3)c2)nc1Nc1ccc(Cl)c(Cl)c1 [Compound 735, N2-[1-(Cyclopropylmethyl)indazol-5-yl]-N4-(3,4-dichlorophenyl)-5-fluoro-2,4-pyrimidinediamine], the IC50 [1] was < 10 µM.

With CC1(C)Oc2ccc(Nc3nc(Nc4ccc5c(cnn5CC5CC5)c4)ncc3F)cc2NC1=O [Compound 736, N2-[1-(Cyclopropylmethyl)indazol-5-yl]-N4-(2,2-dimethyl-3-oxo-4H-benz[1,4]oxazin-6-yl)-5-fluoro-2,4-pyrimidinediamine] the IC50 [2] was < 10 µM.

COc1cc(Nc2nc(Nc3ccc4c(cnn4CC4CC4)c3)ncc2F)ccc1F [Compound 737, N2-[1-(Cyclopropylmethyl)indazol-5-yl)-5-fluoro-N4-(4-fluoro-3-methoxyphenyl)-2,4-pyrimidinediamine] was tested, and the IC50 [2] was < 10 µM.

With COc1ccc(Nc2nc(Nc3ccc4cnn(CC5CC5)c4c3)ncc2F)cc1Cl [Compound 738, N4-(3-Chloro-4-methoxyphenyl)-N2-[1-(cyclopropylmethyl)indazol-6-yl]-5-fluoro-2,4-pyrimidinediamine] the IC50 [2] was < 10 µM.

Fc1cnc(Nc2ccc3cnn(CC4CC4)c3c2)nc1Nc1ccc(Cl)c(Cl)c1 [Compound 739, N2-[1-(Cyclopropylmethyl)indazol-6-yl]-N4-(3,4-dichlorophenyl)-5-fluoro-2,4-pyrimidinediamine] was tested, and the IC50 [1] was < 10 µM.

CC1(C)Oc2ccc(Nc3nc(Nc4ccc5cnn(CC6CC6)c5c4)ncc3F)cc2NC1=O [Compound 740, N2-[1-(Cyclopropylmethyl)indazol-6-yl]-N4-(2,2-dimethyl-3-oxo-4H-benz[1,4]oxazin-6-yl)-5-fluoro-2,4-pyrimidinediamine] was tested, and the IC50 [2] was < 10 µM.

In the case of COc1cc(Nc2nc(Nc3ccc4cnn(CC5CC5)c4c3)ncc2F)ccc1F [Compound 741, N2-[1-(Cyclopropylmethyl)indazol-6-yl)-5-fluoro-N4-(4-fluoro-3-methoxyphenyl)-2,4-pyrimidinediamine], the IC50 [2] is reported as < 10 µM.

COc1ccc(Nc2nc(Nc3ccc4c(cnn4C4CCCCC4)c3)ncc2F)cc1Cl [Compound 742, N4-(3-Chloro-4-methoxyphenyl)-N2-(1-cyclohexylindazol-5-yl)-5-fluoro-2,4-pyrimidinediamine] was tested, and the IC50 [1] was < 10 µM and the IC50 [2] was < 10 µM.

In the case of Fc1cnc(Nc2ccc3c(cnn3C3CCCCC3)c2)nc1Nc1ccc(Cl)c(Cl)c1 [Compound 743, N2-(1-Cyclohexylindazol-5-yl)-N4-(3,4-dichlorophenyl)-5-fluoro-2,4-pyrimidinediamine], the IC50 [1] is reported as < 10 µM.

With CC1(C)Oc2ccc(Nc3nc(Nc4ccc5c(cnn5C5CCCCC5)c4)ncc3F)cc2NC1=O [Compound 744, N2-(1-Cyclohexylindazol-5-yl)-N4-(2,2-dimethyl-3-oxo-4H-benz[1,4]oxazin-6-yl)-5-fluoro-2,4-pyrimidinediamine] the IC50 [2] was < 10 µM.

With COc1cc(Nc2nc(Nc3ccc4c(cnn4C4CCCCC4)c3)ncc2F)ccc1F [Compound 745, N2-(1-Cyclohexylindazol-5-yl)-5-fluoro-N4-(4-fluoro-3-methoxyphenyl)-2,4-pyrimidinediamine] the IC50 [1] was < 10 µM.

For COc1ccc(Nc2nc(Nc3ccc4cnn(C5CCCCC5)c4c3)ncc2F)cc1Cl [Compound 746, N4-(3-Chloro-4-methoxyphenyl)-N2-(1-cyclohexylindazol-6-yl)-5-fluoro-2,4-pyrimidinediamine], the IC50 [1] was < 10 µM.

In the case of Fc1cnc(Nc2ccc3cnn(C4CCCCC4)c3c2)nc1Nc1ccc(Cl)c(Cl)c1 [Compound 747, N2-(1-Cyclohexylindazol-6-yl)-N4-(3,4-dichlorophenyl)-5-fluoro-2,4-pyrimidinediamine], the IC50 [1] is reported as < 10 µM.

In the case of CC1(C)Oc2ccc(Nc3nc(Nc4ccc5cnn(C6CCCCC6)c5c4)ncc3F)cc2NC1=O [Compound 748, N2-(1-Cyclohexylindazol-6-yl)-N4-(2,2-dimethyl-3-oxo-4H-benz[1,4]oxazin-6-yl)-5-fluoro-2,4-pyrimidinediamine], the IC50 [2] is reported as < 10 µM.

COc1cc(Nc2nc(Nc3ccc4cnn(C5CCCCC5)c4c3)ncc2F)ccc1F [Compound 749, N2-(1-Cyclohexylindazol-6-yl)-5-fluoro-N4-(4-fluoro-3-methoxyphenyl)-2,4-pyrimidinediamine] was tested, and the IC50 [1] was < 10 µM.

With Cc1n[nH]c2cc(Nc3ncc(F)c(Nc4ccc(Cl)c(Cl)c4)n3)ccc12 [Compound 750, N4-(3,4-Dichlorophenyl)-5-fluoro-N2-(3-methylindazol-6-yl)-2,4-pyrimidinediamine] the IC50 [1] was < 10 µM and the IC50 [2] was < 10 µM.

Cc1n[nH]c2cc(Nc3ncc(F)c(Nc4ccc5c(c4)NC(=O)C(C)(C)O5)n3)ccc12 [Compound 751, N4-(2,2-Dimethyl-3-oxo-4H-benz[1,4]oxazin-6-yl)-5-fluoro-N2-(3-methylindazol-6-yl)-2,4-pyrimidinediamine] was tested, and the IC50 [1] was < 10 µM and the IC50 [2] was < 10 µM.

For COc1ccc(Nc2nc(Nc3ccc4c(C)nn(C)c4c3)ncc2F)cc1Cl [Compound 752, N4-(3-Chloro-4-methoxyphenyl)-N2-(1,3-dimethylindazol-6-yl)-5-fluoro-2,4-pyrimidinediamine], the IC50 [1] was < 10 µM and the IC50 [2] was < 10 µM.

Cc1nn(C)c2cc(Nc3ncc(F)c(Nc4ccc(Cl)c(Cl)c4)n3)ccc12 [Compound 753, N4-(3,4-Dichlorophenyl)-N2-(1,3-dimethylindazol-6-yl)-5-fluoro-2,4-pyrimidinediamine] was tested, and the IC50 [1] was < 10 µM and the IC50 [2] was < 10 µM.

Cc1nn(C)c2cc(Nc3ncc(F)c(Nc4ccc5c(c4)NC(=O)C(C)(C)O5)n3)ccc12 [Compound 754, N2-(1,3-Dimethylindazol-6-yl)-N4-(2,2-dimethyl-3-oxo-4H-benz[1,4]oxazin-6-yl)-5-fluoro-2,4-pyrimidinediamine] was tested, and the IC50 [1] was < 10 µM and the IC50 [2] was < 10 µM.

In the case of COc1cc(Nc2nc(Nc3ccc4c(C)nn(C)c4c3)ncc2F)ccc1F [Compound 755, N2-(1,3-Dimethylindazol-6-yl)-5-fluoro-N4-(4-fluoro-3-methoxyphenyl)-2,4-pyrimidinediamine], the IC50 [1] is reported as < 10 µM and the IC50 [2] is reported as < 10 µM.

In the case of COc1ccc(Nc2nc(Nc3cc4cnn(C)c4cc3C)ncc2F)cc1Cl [Compound 756, N4-(3-Chloro-4-methoxyphenyl)-N2-(1,6-dimethylindazol-5-yl)-5-fluoro-2,4-pyrimidinediamine], the IC50 [1] is reported as < 10 µM.
